Laboratory results as given in US20250195521A1 (Revolution Medicines, Inc., priority 2020, published 2025).

Key:
[1] = target: NRAS WT binding to BRAF RBD (Homo sapiens (Human), UniProt P01111+P62937); assay: Ras-Raf disruption/FRET/MOA assay, NRAS WT; assay type: biochemical
Description: (§1) Disruption of B-Raf Ras-binding Domain (BRAF^RBD) Interaction with K-Ras by Compounds of the Invention (also called a FRET assay or an MOA assay)
(§2) Note—The following protocol describes a procedure for monitoring disruption of K-Ras G12C(GMP-PNP) binding to BRAF^RBD by a compound of the invention. This protocol may also be executed substituting other Ras proteins or nucleotides.
(§3) The purpose of this biochemical assay was to measure the ability of test compounds to facilitate ternary complex formation between a nucleotide-loaded K-Ras isoform and Cyclophilin A; the resulting ternary complex disrupts binding to a BRAF^RBD construct, inhibiting K-Ras signaling through a RAF effector. Data is reported as IC50 values.
(§4) In assay buffer containing 25 mM HEPES pH 7.3, 0.002% Tween20, 0.1% BSA, 100 mM NaCl and 5 mM MgCl2, tagless Cyclophilin A, His6-K-Ras-GMPPNP, and GST-BRAF^RBD were combined in a 384-well assay plate at final concentrations of 25 μM, 12.5 nM and 50 nM, respectively. Compound was present in plate wells as a 10-point 3-fold dilution series starting at a final concentration of 30 μM. After incubation at 25° C. for 3 hours, a mixture of Anti-His Eu—W1024 and anti-GST allophycocyanin was then added to assay sample wells at final concentrations of 10 nM and 50 nM, respectively, and the reaction incubated for an additional 1.5 hours. […] Compounds that facilitate disruption of a K-Ras: RAF complex were identified as those eliciting a decrease in the TR-FRET ratio relative to DMSO control wells.

[2] = target: K-Ras G12C(GMP-PNP) binding to BRAF RBD (Homo sapiens (Human), UniProt P01116+P62937, G12C); assay: Disruption of BRAF RBD interaction with K-Ras (FRET / MOA assay), K-Ras G12C; assay type: biochemical; conditions: read-out: KRAS G12C FRET IC50
Sequence of K-Ras G12C(GMP-PNP) binding to BRAF RBD (P01116 other isoform, or with tags, fused parts or gaps G12C): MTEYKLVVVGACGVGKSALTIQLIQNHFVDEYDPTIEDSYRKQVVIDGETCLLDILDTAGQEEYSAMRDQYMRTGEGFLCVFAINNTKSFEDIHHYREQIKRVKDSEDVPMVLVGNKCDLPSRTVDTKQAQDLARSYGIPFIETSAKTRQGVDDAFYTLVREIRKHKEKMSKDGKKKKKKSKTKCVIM
Sequence of K-Ras G12C(GMP-PNP) binding to BRAF RBD (P62937 whole entry): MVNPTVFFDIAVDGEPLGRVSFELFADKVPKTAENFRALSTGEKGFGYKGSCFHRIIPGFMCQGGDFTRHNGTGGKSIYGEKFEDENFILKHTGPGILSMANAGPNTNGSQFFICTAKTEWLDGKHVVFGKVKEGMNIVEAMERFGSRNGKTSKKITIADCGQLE
Procedure, shortened: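 First, test compounds in a 10-point 3-fold series (30 μM final top) were incubated for 3 hours at 25° C with nucleotide-loaded Ras, cyclophilin A and a BRAF RBD construct. Next, Eu anti-His and allophycocyanin anti-GST detection reagents were added for 1.5 hours. Finally, IC50s were derived from loss of TR-FRET signal against DMSO.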

[3] = target: NRAS G12C binding to BRAF RBD (Homo sapiens (Human), UniProt P01111+P62937, G12C); assay: Ras-Raf disruption/FRET/MOA assay, NRAS G12C; assay type: biochemical
Sequence of NRAS G12C binding to BRAF RBD (P01111 whole entry G12C): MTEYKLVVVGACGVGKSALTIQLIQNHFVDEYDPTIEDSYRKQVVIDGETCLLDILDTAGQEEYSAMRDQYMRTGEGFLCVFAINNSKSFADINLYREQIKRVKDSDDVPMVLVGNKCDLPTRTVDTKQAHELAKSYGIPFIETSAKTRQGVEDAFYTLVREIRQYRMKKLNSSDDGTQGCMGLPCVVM
Sequence of NRAS G12C binding to BRAF RBD (P62937 whole entry): as the sequence (P62937 whole entry) above
Description: as §2, §3
as §4, with “Compound” for “In assay buffer containing 25 mM HEPES pH 7.3, 0.002% Tween20, 0.1% BSA, 100 mM NaCl and 5 mM MgCl2, tagless Cyclophilin A, His6-K-Ras-GMPPNP, and GST-BRAF^RBD were combined in a 384-well assay plate at final concentrations of 25 μM, 12.5 nM and 50 nM, respectively. Compound”

[4] = target: NRAS Q61K binding to BRAF RBD (Homo sapiens (Human), UniProt P01111+P62937, Q61K); assay: Ras-Raf disruption/FRET/MOA assay, NRAS Q61K; assay type: biochemical
Sequence of NRAS Q61K binding to BRAF RBD (P01111 whole entry Q61K): as the sequence (P01111 whole entry G12C) above, with C12G, Q61K counted along it
Sequence of NRAS Q61K binding to BRAF RBD (P62937 whole entry): as the sequence (P62937 whole entry) above
Description: as §1, §2, §3, §4

[5] = target: KRAS G13D binding to BRAF RBD (Homo sapiens (Human), UniProt P01116+P62937, G13D); assay: Ras-Raf disruption/FRET/MOA assay, KRAS G13D; assay type: biochemical
Sequence of KRAS G13D binding to BRAF RBD (P01116 other isoform, or with tags, fused parts or gaps G13D): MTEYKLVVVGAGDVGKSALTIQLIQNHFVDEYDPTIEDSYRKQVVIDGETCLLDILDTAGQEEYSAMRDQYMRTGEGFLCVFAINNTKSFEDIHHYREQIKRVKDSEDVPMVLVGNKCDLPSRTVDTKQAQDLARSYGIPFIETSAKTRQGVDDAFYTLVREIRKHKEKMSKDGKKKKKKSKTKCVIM
Sequence of KRAS G13D binding to BRAF RBD (P62937 whole entry): as the sequence (P62937 whole entry) above
Description: as §2, §3
as §4, with “Compound” for “In assay buffer containing 25 mM HEPES pH 7.3, 0.002% Tween20, 0.1% BSA, 100 mM NaCl and 5 mM MgCl2, tagless Cyclophilin A, His6-K-Ras-GMPPNP, and GST-BRAF^RBD were combined in a 384-well assay plate at final concentrations of 25 μM, 12.5 nM and 50 nM, respectively. Compound”

[6] = target: KRAS Q61H binding to BRAF RBD (Homo sapiens (Human), UniProt P01116+P62937, Q61H); assay: Ras-Raf disruption/FRET/MOA assay, KRAS Q61H; assay type: biochemical
Sequence of KRAS Q61H binding to BRAF RBD (P01116 other isoform, or with tags, fused parts or gaps Q61H): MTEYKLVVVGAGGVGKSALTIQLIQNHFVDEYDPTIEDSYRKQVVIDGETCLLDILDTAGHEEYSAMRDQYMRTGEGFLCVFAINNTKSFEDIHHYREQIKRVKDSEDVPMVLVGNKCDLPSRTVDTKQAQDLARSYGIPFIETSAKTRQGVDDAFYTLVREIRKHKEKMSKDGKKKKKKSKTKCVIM
Sequence of KRAS Q61H binding to BRAF RBD (P62937 whole entry): as the sequence (P62937 whole entry) above
Description: as §1, §2, §3, §4

[7] = tested on: K-Ras G12C (NCI-H358 cells); assay: Potency assay: pERK in NCI-H358 cells; assay type: cell-based, human; conditions: Homo sapiens; NCI-H358 cells, 4 hours; read-out: pERK EC50 (H358 KRAS G12C)
Procedure, shortened: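 Cells plated the day before were exposed for 4 h at 37° C, 5% CO2 to a 10-point, 3-fold DMSO dilution series (10 mM top stock), in duplicate. Phospho-ERK was read by AlphaLISA SureFire Ultra or by In-Cell Western with DRAQ5 DNA stain, and IC50 came from a 4-parameter sigmoidal fit.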

NCI-H358 (K-Ras G12C) = assay: CellTiter-Glo cell viability assay, NCI-H358; assay type: cell-based, human; conditions: Homo sapiens, NCI-H358, 120 h, 5-day treatment; read-out: H358 Cell Viability assay data (K-Ras G12C, IC50)
Procedure, shortened: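 Luminescent CellTiter-Glo read-out on day 5 after compound exposure; signal expressed as percent of mean DMSO control; four-parameter logistic fit gives the value.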

[8] = target: NRAS Q61R binding to BRAF RBD (Homo sapiens (Human), UniProt P01111+P62937, Q61R); assay: Ras-Raf disruption/FRET/MOA assay, NRAS Q61R; assay type: biochemical
Sequence of NRAS Q61R binding to BRAF RBD (P01111 whole entry Q61R): as the sequence (P01111 whole entry G12C) above, with C12G, Q61R counted along it
Sequence of NRAS Q61R binding to BRAF RBD (P62937 whole entry): as the sequence (P62937 whole entry) above
Description: as §1, §2, §3, §4

Sequence of NRAS WT binding to BRAF RBD (P01111 whole entry, the tested form may be a part): as the sequence (P01111 whole entry G12C) above, with C12G counted along it
Sequence of NRAS WT binding to BRAF RBD (P62937 whole entry, the tested form may be a part): as the sequence (P62937 whole entry) above

Row | IC50 [1] | IC50 [2] | IC50 [3] | IC50 [4] | IC50 [5] | IC50 [6] | EC50 [7] | IC50 (NCI-H358 (K-Ras G12C)) | IC50 [8] | Compound
1 | > 10000 nM | 10 to 100 nM | 10 to 100 nM | > 10000 nM | > 10000 nM | > 10000 nM | < 5000 nM | 10 to 100 nM | > 10000 nM | CCn1c(-c2cccnc2[C@H](C)OC)c2c3cc(ccc31)-c1cnc(o1)C[C@H](NC(=O)[C@@H](COC1CN(C(=O)C#CC(C)(C)N(C)C)C1)C(C)C)C(=O)N1CCC[C@H](N1)C(=O)OCCC2 (atropisomer, axis not shown) [Compound A649]
2 | 100 to 1000 nM | < 10 nM | < 10 nM | 100 to 1000 nM | 1000 to 10000 nM | 100 to 1000 nM | < 5000 nM | < 10 nM | 1000 to 10000 nM | CC[C@H](COC1CN(C(=O)C#CC(C)(C)N(C)C)C1)C(=O)N[C@H]1Cc2nc(cs2)-c2ccc3c(c2)c(c(-c2cccnc2[C@H](C)OC)n3CC)CC(C)(C)COC(=O)[C@@H]2CCCN(N2)C1=O (atropisomer, axis not shown) [Compound A660]
3 | 1000 to 10000 nM | < 10 nM | < 10 nM | 1000 to 10000 nM | > 10000 nM | 1000 to 10000 nM | < 5000 nM | < 10 nM | > 10000 nM | CC[C@@H](COC1CN(C(=O)C#CC(C)(C)N(C)C)C1)C(=O)N[C@H]1Cc2nc(cs2)-c2ccc3c(c2)c(c(-c2cccnc2[C@H](C)OC)n3CC)CC(C)(C)COC(=O)[C@@H]2CCCN(N2)C1=O (atropisomer, axis not shown) [Compound A705]
4 | > 10000 nM | 10 to 100 nM | 10 to 100 nM | > 10000 nM | > 10000 nM | 1000 to 10000 nM | < 5000 nM | < 10 nM | > 10000 nM | CCn1c(-c2cccnc2[C@H](C)OC)c2c3cc(ccc31)-c1cccc(c1)C[C@H](NC(=O)[C@H](C(C)C)N1CC[C@@]3(CCN(C(=O)C#CC(C)(C)N4CCC4)C3)C1=O)C(=O)N1CCC[C@H](N1)C(=O)OCC(C)(C)C2 (atropisomer, axis not shown) [Compound A733]
5 | > 10000 nM | 1000 to 10000 nM | 1000 to 10000 nM | > 10000 nM | > 10000 nM | > 10000 nM | – | 100 to 1000 nM | > 10000 nM | CCn1c(-c2cncnc2)c2c3cc(ccc31)-c1csc(n1)C[C@H](NC(=O)[C@H](C(C)C)N(C)C(=O)[C@H]1CCN(S(=O)(=O)CC)C1)C(=O)N1CCC[C@H](N1)C(=O)OCC(C)(C)C2 [Compound A170]
6 | 1000 to 10000 nM | – | – | 1000 to 10000 nM | – | 1000 to 10000 nM | – | – | 1000 to 10000 nM | C=C(C)C(=O)N1CC(N(C)C(=O)N(C)[C@H](C(=O)N[C@H]2Cc3nc(cs3)-c3ccc4c(c3)c(c(-c3cccnc3[C@H](C)OC)n4CC)CC(C)(C)COC(=O)[C@@H]3CCCN(N3)C2=O)C(C)C)C1 [Compound A359]
7 | 1000 to 10000 nM | 10 to 100 nM | 10 to 100 nM | > 10000 nM | > 10000 nM | 1000 to 10000 nM | – | 10 to 100 nM | > 10000 nM | CCn1c(-c2cccnc2[C@H](C)OC)c2c3cc(ccc31)-c1csc(n1)C[C@H](NC(=O)C1(COC3CN(C(=O)C#CC(C)(C)N4CCC4)C3)CC1)C(=O)N1CCC[C@H](N1)C(=O)OCC(C)(C)C2 [Compound A362]
8 | 1000 to 10000 nM | < 10 nM | < 10 nM | 1000 to 10000 nM | 1000 to 10000 nM | 100 to 1000 nM | – | < 10 nM | 1000 to 10000 nM | CCn1c(-c2cccnc2[C@H](C)OC)c2c3cc(ccc31)-c1cccc(c1)C[C@H](NC(=O)[C@H](C(C)C)N1CC[C@]3(CCN(C(=O)C#CC(C)(C)N4CCC4)C3)C1=O)C(=O)N1CCC[C@H](N1)C(=O)OCC(C)(C)C2 [Compound A365]
9 | 1000 to 10000 nM | – | 100 to 1000 nM | > 10000 nM | > 10000 nM | > 10000 nM | < 5000 nM | 100 to 1000 nM | > 10000 nM | C=CC(=O)N1CC[C@H](C(=O)N(C)[C@H](C(=O)N[C@H]2CC3CN(CCO3)c3ccc4c(c3)c(c(-c3cccnc3[C@H](C)OC)n4CC)CC(C)(C)COC(=O)[C@@H]3CCCN(N3)C2=O)C(C)C)C1 [Compound A378]
10 | 1000 to 10000 nM | – | 100 to 1000 nM | 1000 to 10000 nM | > 10000 nM | 100 to 1000 nM | < 5000 nM | – | 1000 to 10000 nM | C=CC(=O)N1CC[C@H](C(=O)C2CC[C@H](C)[C@H]2C(=O)N[C@H]2Cc3cccc(c3)-c3ccc4c(c3)c(c(-c3cccnc3[C@H](C)OC)n4CC)CC(C)(C)COC(=O)[C@@H]3CCCN(N3)C2=O)C1 (stereo partly drawn) [Compound A494]
11 | 100 to 1000 nM | 100 to 1000 nM | 100 to 1000 nM | 100 to 1000 nM | 1000 to 10000 nM | 100 to 1000 nM | – | 100 to 1000 nM | 100 to 1000 nM | C=CC(=O)N(C)CCN1CCN(C(=O)N(C)[C@H](C(=O)N[C@H]2C[n+]3cccc(c3)-c3ccc4c(c3)c(c(-c3cccnc3[C@H](C)OC)n4CC)CC(C)(C)COC(=O)[C@@H]3CCCN(N3)C2=O)C(C)C)CC1 [Compound A539]
12 | 100 to 1000 nM | 100 to 1000 nM | 100 to 1000 nM | 1000 to 10000 nM | 1000 to 10000 nM | 10 to 100 nM | < 5000 nM | 100 to 1000 nM | 1000 to 10000 nM | C=CC(=O)N1CC[C@]2(C1)OCN([C@H](C(=O)N[C@H]1Cc3cc(cc(C(F)(F)F)c3)-c3ccc4c(c3)c(c(-c3cccnc3[C@H](C)OC)n4CC)CC(C)(C)COC(=O)[C@@H]3CCCN(N3)C1=O)C(C)C)C2=O [Compound A557]
13 | 100 to 1000 nM | 100 to 1000 nM | 100 to 1000 nM | 100 to 1000 nM | 1000 to 10000 nM | 100 to 1000 nM | < 5000 nM | 100 to 1000 nM | 100 to 1000 nM | C=CC(=O)N(C)CCN1CCN(C(=O)N(C)[C@H](C(=O)N[C@H]2CN3CCC=C(C3)c3ccc4c(c3)c(c(-c3cccnc3[C@H](C)OC)n4CC)CC(C)(C)COC(=O)[C@@H]3CCCN(N3)C2=O)C(C)C)C[C@@H]1C [Compound A570]

Row | Compound | IC50 [1] | IC50 [2] | IC50 [3] | IC50 [4] | IC50 [5] | IC50 [6] | EC50 [7] | IC50 (NCI-H358 (K-Ras G12C)) | IC50 [8]
14 | C=CC(=O)N1CC[C@H](C(=O)N(C)[C@H](C(=O)N[C@H]2Cc3cccc(c3)-c3ccc4c(c3)c(c(-c3cccnc3[C@H](C)OC)n4CC)CC(C)(C)COC(=O)[C@@H]3CCCN(N3)C2=O)[C@H](C)C(F)(F)F)C1 (atropisomer, axis not shown) [Compound A641] | 1000 to 10000 nM | 100 to 1000 nM | 100 to 1000 nM | 1000 to 10000 nM | 1000 to 10000 nM | 1000 to 10000 nM | < 5000 nM | 10 to 100 nM | 1000 to 10000 nM
